Nine molecules from patent US20260070945A1, “MACROCYCLIC IMMUNOMODULATORS” (Bristol-Myers Squibb Company, priority 2022, published 2026) can be followed below.

*1 amine or outer side, *2 acyl side, *3 side chain or, on linkers, in order; H or OH if unused. Where a SMILES comes first, the peptide text is derived from it. Bridges are numbered along the chain shown (N, C = ends). [ ]: non-standard residue; d: D form. The star is where a group is joined. ξ: configuration not given here. Phe(3-CF3) = N[C@@H](Cc1cccc(C(F)(F)F)c1)C(=O)O; Phe(4-COOH) = N[C@@H](Cc1ccc(C(=O)O)cc1)C(=O)O; Bip = N[C@@H](Cc1ccc(-c2ccccc2)cc1)C(=O)O; Phe(3-Me) = Cc1cccc(C[C@H](N)C(=O)O)c1; γGlu = O=C(O)[C@H](CCC(=O)[*:2])N[*:1]; Abu(3S-NH2) = C[C@H](N)[C@H](N)C(=O)O; NH(CH2)12COOH = O=C(O)CCCCCCCCCCCCN*; Val(3-OH) = CC(C)(O)[C@H](N)C(=O)O; 4Pal = N[C@@H](Cc1ccncc1)C(=O)O; Cha = N[C@@H](CC1CCCCC1)C(=O)O; Cit = NC(=O)NCCC[C@H](N)C(=O)O; Ile(3ξ) = CCC(C)[C@H](N)C(=O)O; Thr(3ξ) = CC(O)[C@H](N)C(=O)O; 12Ado = NCCCCCCCCCCCC(=O)O; Carboxymethyl = O=C(O)C*; NMeA = CN[C@@H](C)C(=O)O; Orn = NCCC[C@H](N)C(=O)O; Aun = NCCCCCCCCCCC(=O)O; Dab = NCC[C@H](N)C(=O)O; AEEA = NCCOCCOCC(=O)O; Ac3c = NC1(C(=O)O)CC1

One assay deals with T1, PD-1/PD-L1 interaction (PE-labeled human PD-L1-Ig binding to Jurkat cell line over-expressing human PD-1) (Homo sapiens, UniProt Q15116).
T1 construct: expressed in transfected cells; host or cells: Jurkat
T1 sequence (Q15116 25-288): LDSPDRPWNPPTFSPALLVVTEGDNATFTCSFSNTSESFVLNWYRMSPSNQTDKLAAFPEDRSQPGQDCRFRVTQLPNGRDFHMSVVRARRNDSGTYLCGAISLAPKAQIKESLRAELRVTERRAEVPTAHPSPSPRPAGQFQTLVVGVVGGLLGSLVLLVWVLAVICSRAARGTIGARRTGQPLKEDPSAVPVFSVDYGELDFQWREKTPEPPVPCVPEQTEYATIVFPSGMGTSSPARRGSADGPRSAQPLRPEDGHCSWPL
Description: Jurkat-PD-1 Cell Binding High-Content Screening Assay (CBA). The settings on record: Jurkat-hPD-1 cells, PE-labeled PD-L1-Ig 20 nM final; read-out: Jurkat HPD1 PDL1 IC50. The method in brief:
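Compound is added first to the PD-1-expressing Jurkat cells and held 2 h at 37 °C in serum-containing DMEM. The fluorescent PD-L1 fusion follows at 20 nM final for 1 h. Fixed, Hoechst-stained cells are then imaged for bound label.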
For `Cc1cccc(C[C@@H]2NC(=O)[C@H](CC(=O)O)NC(=O)[C@H](Cc3ccc(OCC(=O)O)cc3)NC(=O)[C@H](Cc3ccc(OCC(=O)O)cc3)NC(=O)CSC[C@@H](C(=O)NC3(C(=O)NCCOCCOCC(=O)NCCCCCCCCCCC(=O)O)CC3)NC(=O)[C@H](CCCN)NC(=O)[C@H](C(C)C)NC(=O)[C@H](CC3CCCCC3)NC(=O)[C@H](CCN)NC(=O)[C@@H](CC(C)C)NC(=O)[C@H](C)N(C)C(=O)[C@H](Cc3ccc(O)cc3)NC(=O)[C@H](Cc3ccc(-c4ccccc4)cc3)NC(=O)[C@H](CC(C)C)NC2=O)c1` [Example 1251] ({CH2CO}-Y(Carboxymethyl)Y(Carboxymethyl)D[Phe(3-Me)]L[Bip]Y[NMeA][dL][Dab][Cha]V[Orn]C[Ac3c][AEEA][Aun]-OH; thioether N-14), the concentration for half-maximal inhibition (IC50) is 11.8 nM.

As for `CCC(C)[C@@H]1NC(=O)[C@H](Cc2ccc(-c3ccccc3)cc2)NC(=O)[C@H](C(C)C)NC(=O)[C@H](Cc2c[nH]c3ccccc23)NC(=O)[C@H](CC(=O)O)NC(=O)[C@H](Cc2ccc(OCC(=O)O)cc2)NC(=O)[C@H](C(C)O)NC(=O)CSC[C@@H](C(=O)N[C@H](CC(N)=O)C(=O)NCCOCCOCC(=O)NCCCCCCCCCCC(=O)O)NC(=O)[C@H](CO)NC(=O)[C@H](C(C)C)NC(=O)[C@H](CC2CCCCC2)NC(=O)[C@H](CCN)NC(=O)[C@@H](CC(C)C)NC(=O)[C@H](C)N(C)C1=O` (stereo partly drawn) [Example 2031] ({CH2CO}-[Thr(3ξ)]Y(Carboxymethyl)DWV[Bip][Ile(3ξ)][NMeA][dL][Dab][Cha]VSC[dN][AEEA][Aun]-OH; thioether N-14), the IC50 is 9.4 nM.

For the molecule `CC(C)C[C@H]1NC(=O)[C@H](C)N(C)C(=O)[C@H](CCCNC(N)=O)NC(=O)[C@H](Cc2ccc(-c3ccccc3)cc2)NC(=O)[C@H](Cc2ccc(C(=O)O)cc2)NC(=O)[C@H](Cc2cccc(C(F)(F)F)c2)NC(=O)[C@H](CC(=O)O)NC(=O)[C@H](Cc2ccc(OCC(=O)O)cc2)NC(=O)[C@H]([C@H](C)N)NC(=O)CSC[C@@H](C(=O)N[C@@H](CCN)C(=O)NCCOCCOCC(=O)N[C@@H](CCC(=O)NCCOCCOCC(=O)NCCCCCCCCCCCCC(=O)O)C(=O)O)NC(=O)[C@H](CO)NC(=O)[C@H](C(C)(C)O)NC(=O)[C@H](CC2CCCCC2)NC(=O)[C@H](CCN)NC1=O` [Example 1205] ({CH2CO}-[Abu(3S-NH2)]Y(Carboxymethyl)D[Phe(3-CF3)][Phe(4-COOH)][Bip][Cit][NMeA][dL][Dab][Cha][Val(3-OH)]SC[Dab][AEEA][γGlu][AEEA]-{NH(CH2)12COOH}; thioether N-14), the half-maximal inhibitory concentration (IC50) was 24.7 nM. Consider `CC(C)C[C@@H]1NC(=O)[C@H](Cc2c[nH]c3ccccc23)NC(=O)[C@H](CC(=O)O)NC(=O)[C@H](Cc2ccc(O)cc2)NC(=O)[C@H](Cc2ccncc2)NC(=O)CSC[C@@H](C(=O)NCCOCCOCC(=O)N[C@@H](CCCN)C(=O)NCCCCCCCCCCC(=O)O)NC(=O)[C@H](CCCN)NC(=O)[C@H](C(C)C)NC(=O)[C@H](CC2CCCCC2)NC(=O)[C@H](CCN)NC(=O)[C@@H](CC(C)C)NC(=O)[C@H](C)N(C)C(=O)[C@H](C(C)C)NC(=O)[C@H](Cc2ccc(-c3ccccc3)cc2)NC1=O` [Example 2163] ({CH2CO}-[4Pal]YDWL[Bip]V[NMeA][dL][Dab][Cha]V[Orn]C[AEEA][Orn][Aun]-OH; thioether N-14), for which the IC50 worked out at 17.6 nM. Still for that read-out and setting: the same measure for `CC(C)C[C@H]1NC(=O)[C@H](C)N(C)C(=O)[C@H](Cc2ccc(OCC(=O)O)cc2)NC(=O)[C@H](Cc2ccc(-c3ccccc3)cc2)NC(=O)[C@H](Cc2ccc(OCC(=O)O)cc2)NC(=O)[C@H](Cc2c[nH]c3ccccc23)NC(=O)[C@H](CC(=O)O)NC(=O)[C@H](Cc2ccc(OCC(=O)O)cc2)NC(=O)[C@H]([C@@H](C)O)NC(=O)CSC[C@@H](C(=O)N[C@@H](CCN)C(=O)NCCOCCOCC(=O)NCCCCCCCCCCC(=O)O)NC(=O)[C@H](CCCN)NC(=O)[C@H](C(C)C)NC(=O)[C@H](CC2CCCCC2)NC(=O)[C@H](CCC(=O)O)NC1=O` [Example 1400] ({CH2CO}-TY(Carboxymethyl)DWY(Carboxymethyl)[Bip]Y(Carboxymethyl)[NMeA][dL]E[Cha]V[Orn]C[Dab][AEEA][Aun]-OH; thioether N-14): 306 nM; for `CC(C)C[C@@H]1NC(=O)[C@H](Cc2c[nH]c3ccccc23)NC(=O)[C@H](CC(=O)O)NC(=O)[C@H](Cc2ccc(OCC(=O)O)cc2)NC(=O)[C@H](Cc2ccccc2)NC(=O)CSC[C@@H](C(=O)N[C@@H](CCN)C(=O)NCCCCCCCCCCC(=O)O)NC(=O)[C@H]([C@@H](C)O)NC(=O)[C@H](C(C)C)NC(=O)[C@H](CC(C)C)NC(=O)[C@H](CC(N)=O)NC(=O)[C@@H](CC(C)C)NC(=O)[C@H](C)N(C)C(=O)[C@H](C(C)C)NC(=O)[C@H](Cc2ccc(-c3ccccc3)cc2)NC1=O` [Example 1333] ({CH2CO}-FY(Carboxymethyl)DWL[Bip]V[NMeA][dL]NLVTC[Dab][Aun]-OH; thioether N-14): 67.3 nM; for `CCC(C)[C@@H]1NC(=O)[C@H](Cc2ccc(-c3ccccc3)cc2)NC(=O)[C@H](CC(C)C)NC(=O)[C@H](Cc2c[nH]c3ccccc23)NC(=O)[C@H](CC(=O)O)NC(=O)[C@H](Cc2ccc(O)cc2)NC(=O)[C@H](Cc2ccncc2)NC(=O)CSC[C@@H](C(=O)N[C@@H](CCCN)C(=O)NCCOCCOCC(=O)NCCCCCCCCCCC(=O)O)NC(=O)[C@H](CO)NC(=O)[C@H](C(C)C)NC(=O)[C@H](CC2CCCCC2)NC(=O)[C@H](CCN)NC(=O)[C@@H](CC(C)C)NC(=O)[C@H](C)N(C)C1=O` (stereo partly drawn) [Example 2073] ({CH2CO}-[4Pal]YDWL[Bip][Ile(3ξ)][NMeA][dL][Dab][Cha]VSC[Orn][AEEA][Aun]-OH; thioether N-14): 44 nM.

The assay is the same for the next values; noted with them: PE-labeled PD-L1-Ig 20 nM final, Jurkat-hPD-1 cells; read-out: Jurkat HPD1 PDL1 IC50.
Consider `CC(=O)NCCCC[C@@H]1NC(=O)[C@H](C(C)(C)O)NC(=O)[C@H](CC2CCCCC2)NC(=O)[C@H](CCN)NC(=O)[C@@H](CC(C)C)NC(=O)[C@H](C)N(C)C(=O)[C@H](CCC(N)=O)NC(=O)[C@H](Cc2ccc(-c3ccccc3)cc2)NC(=O)[C@H](Cc2ccc(C(=O)O)cc2)NC(=O)[C@H](Cc2cccc(C(F)(F)F)c2)NC(=O)[C@H](CC(=O)O)NC(=O)[C@H](Cc2ccc(OCC(=O)O)cc2)NC(=O)[C@H](Cc2ccc(OCC(=O)O)cc2)NC(=O)CSC[C@@H](C(=O)N[C@@H](CCN)C(=O)NCCCCCCCCCCC(=O)O)NC1=O` [Example 2564] ({CH2CO}-Y(Carboxymethyl)Y(Carboxymethyl)D[Phe(3-CF3)][Phe(4-COOH)][Bip]Q[NMeA][dL][Dab][Cha][Val(3-OH)]K(Ac)C[Dab][Aun]-OH; thioether N-14), for which the IC50 turned out to be 1.1 nM.

In the case of `Cc1cccc(C[C@@H]2NC(=O)[C@H](CC(=O)O)NC(=O)[C@H](Cc3ccc(OCC(=O)O)cc3)NC(=O)[C@H]([C@@H](C)O)NC(=O)CSC[C@@H](C(=O)N[C@@H](CCC(=O)O)C(=O)NCCOCCOCC(=O)NCCCCCCCCCCCC(=O)O)NC(=O)CNC(=O)[C@H](C(C)C)NC(=O)[C@H](CC3CCCCC3)NC(=O)[C@@H](CCC(=O)O)NC(=O)[C@@H](CC(C)C)NC(=O)[C@H](C)N(C)C(=O)[C@H](Cc3ccc(OCC(=O)O)cc3)NC(=O)[C@H](Cc3ccc(-c4ccccc4)cc3)NC(=O)[C@H](Cc3ccc(OCC(=O)O)cc3)NC2=O)c1` [Example 2686] ({CH2CO}-TY(Carboxymethyl)D[Phe(3-Me)]Y(Carboxymethyl)[Bip]Y(Carboxymethyl)[NMeA][dL][dE][Cha]VGCE[AEEA][12Ado]-OH; thioether N-14), the IC50 worked out at 257 nM.

As a reminder, the IC50 is the concentration that gives 50% inhibition.
